Measurements taken from the NIST ThermoML archive (doi:10.1021/je900124n).
“And” between values parts separate entries of the source, which are not always exact repeats. Equal values may be shown once.

Settings: Fluid (supercritical or subcritical phases), Buoyancy - hydrostatic balance with magnetic suspension - two sinkers

CCC [propane]
Settings	mass density
369.83 K, 4284.6 kPa	281.214 kg/m3 and 281.229 kg/m3 and 281.215 kg/m3
369.83 K, 4284.7 kPa	281.219 kg/m3 and 281.22 kg/m3
369.83 K, 4985.9 kPa	337.354 kg/m3 and 337.357 kg/m3
369.83 K, 4986 kPa	337.358 kg/m3 and 337.357 kg/m3
369.83 K, 4986.1 kPa	337.356 kg/m3 and 337.357 kg/m3
369.83 K, 8381.5 kPa	391.64 kg/m3
369.83 K, 8382 kPa	391.644 kg/m3 and 391.642 kg/m3 and 391.641 kg/m3
369.83 K, 8382.2 kPa	391.644 kg/m3
369.83 K, 8382.4 kPa	391.643 kg/m3
369.83 K, 8382.6 kPa	391.644 kg/m3
369.85 K, 311.85 kPa	4.5865 kg/m3 and 4.5866 kg/m3
369.85 K, 311.86 kPa	4.5867 kg/m3
369.85 K, 554.46 kPa	8.3301 kg/m3 and 8.3303 kg/m3
369.85 K, 927.78 kPa	14.4328 kg/m3 and 14.4326 kg/m3
369.85 K, 927.79 kPa	14.4329 kg/m3
369.85 K, 1387.4 kPa	22.6395 kg/m3 and 22.6384 kg/m3 and 22.6393 kg/m3
369.85 K, 1387.5 kPa	22.64 kg/m3 and 22.6401 kg/m3
369.85 K, 2120.4 kPa	37.8404 kg/m3 [middle of 5 runs]
369.85 K, 2871.7 kPa	57.8231 kg/m3
369.85 K, 2871.8 kPa	57.8298 kg/m3 and 57.8251 kg/m3
369.85 K, 3827.6 kPa	100.815 kg/m3 and 100.816 kg/m3
369.85 K, 3827.7 kPa	100.817 kg/m3
369.85 K, 4188.1 kPa	146.906 kg/m3
369.85 K, 4188.2 kPa	146.91 kg/m3
369.85 K, 4188.3 kPa	146.915 kg/m3 and 146.912 kg/m3
369.85 K, 4188.4 kPa	146.917 kg/m3
369.85 K, 4241.5 kPa	177.435 kg/m3
369.85 K, 4241.8 kPa	177.526 kg/m3 and 177.58 kg/m3 and 177.506 kg/m3
369.85 K, 4241.9 kPa	177.65 kg/m3
369.85 K, 4248.2 kPa	218.49 kg/m3 and 218.749 kg/m3 and 220.705 kg/m3
369.85 K, 4248.3 kPa	224.686 kg/m3 and 220.268 kg/m3
369.85 K, 4248.4 kPa	235.513 kg/m3 and 235.434 kg/m3
369.85 K, 4248.6 kPa	231.541 kg/m3 and 236.898 kg/m3
369.85 K, 4258.6 kPa	265.216 kg/m3 and 265.238 kg/m3
369.85 K, 4258.7 kPa	265.211 kg/m3
369.85 K, 4372.9 kPa	299.086 kg/m3
369.85 K, 4373 kPa	299.075 kg/m3
369.85 K, 4373.1 kPa	299.089 kg/m3
369.85 K, 4373.2 kPa	299.082 kg/m3
369.85 K, 5012.2 kPa	338.098 kg/m3
369.85 K, 5012.3 kPa	338.097 kg/m3
369.85 K, 5012.5 kPa	338.099 kg/m3
369.85 K, 5012.6 kPa	338.102 kg/m3
369.85 K, 5520.1 kPa	352.211 kg/m3
369.85 K, 5520.4 kPa	352.212 kg/m3
369.86 K, 554.46 kPa	8.3303 kg/m3 and 8.3302 kg/m3
369.86 K, 927.79 kPa	14.4327 kg/m3 and 14.4326 kg/m3
369.86 K, 4248.7 kPa	234.526 kg/m3
369.86 K, 4258.8 kPa	265.251 kg/m3 and 265.229 kg/m3
369.86 K, 5520.6 kPa	352.209 kg/m3 and 352.21 kg/m3
369.93 K, 4252.7 kPa	197.999 kg/m3 and 197.778 kg/m3
369.93 K, 4252.8 kPa	198.048 kg/m3 [middle of 4 runs]
369.93 K, 4252.9 kPa	197.901 kg/m3
369.93 K, 4253.8 kPa	232.64 kg/m3
369.93 K, 4253.9 kPa	232.539 kg/m3
369.93 K, 4254 kPa	231.862 kg/m3 [middle of 5 runs]
369.93 K, 4255 kPa	244.442 kg/m3 [middle of 4 runs]
369.93 K, 4255.1 kPa	244.551 kg/m3 and 244.556 kg/m3
369.93 K, 4255.2 kPa	244.584 kg/m3 and 244.7 kg/m3
369.95 K, 4248.2 kPa	177.636 kg/m3
369.95 K, 4248.3 kPa	177.67 kg/m3 and 177.631 kg/m3 and 177.707 kg/m3
369.95 K, 4248.4 kPa	177.657 kg/m3
369.95 K, 4255.7 kPa	214.994 kg/m3 and 214.812 kg/m3 and 213.928 kg/m3
369.95 K, 4255.8 kPa	214.794 kg/m3 and 214.471 kg/m3
369.95 K, 4256.2 kPa	231.389 kg/m3
369.95 K, 4256.3 kPa	231.791 kg/m3 and 231.342 kg/m3
369.95 K, 4256.4 kPa	233.445 kg/m3 and 231.817 kg/m3
369.95 K, 4268 kPa	265.209 kg/m3 and 265.217 kg/m3 and 265.193 kg/m3
369.95 K, 4268.2 kPa	265.233 kg/m3
369.96 K, 4268.2 kPa	265.215 kg/m3
370.03 K, 4259.9 kPa	197.023 kg/m3 and 197.111 kg/m3 and 197.064 kg/m3
370.03 K, 4260 kPa	197.186 kg/m3 [middle of 4 runs]
370.03 K, 4260.1 kPa	197.3 kg/m3
370.03 K, 4261.6 kPa	225.827 kg/m3 and 225.421 kg/m3 and 225.472 kg/m3
370.03 K, 4261.7 kPa	225.904 kg/m3 and 225.809 kg/m3 and 225.73 kg/m3
370.03 K, 4261.8 kPa	225.954 kg/m3 and 225.938 kg/m3
370.03 K, 4263.3 kPa	244.173 kg/m3 and 244.096 kg/m3
370.03 K, 4263.4 kPa	244.149 kg/m3 and 244.214 kg/m3
370.03 K, 4263.5 kPa	244.309 kg/m3 and 244.177 kg/m3 and 244.274 kg/m3
370.03 K, 4263.6 kPa	244.294 kg/m3
370.05 K, 4254.8 kPa	177.712 kg/m3 and 177.662 kg/m3
370.05 K, 4254.9 kPa	177.695 kg/m3 and 177.74 kg/m3 and 177.673 kg/m3
370.05 K, 4263.2 kPa	211.406 kg/m3 and 211.212 kg/m3
370.05 K, 4263.4 kPa	211.466 kg/m3 and 212.306 kg/m3 and 211.429 kg/m3
370.05 K, 4264.2 kPa	229.256 kg/m3 and 228.799 kg/m3
370.05 K, 4264.3 kPa	229.262 kg/m3 and 229.062 kg/m3
370.05 K, 4277.5 kPa	265.204 kg/m3 [middle of 4 runs]
370.05 K, 4277.6 kPa	265.242 kg/m3
370.06 K, 4264.4 kPa	229.28 kg/m3
370.32 K, 4281.1 kPa	196.636 kg/m3
370.32 K, 4281.2 kPa	196.743 kg/m3 and 196.797 kg/m3 and 196.727 kg/m3
370.32 K, 4281.3 kPa	196.729 kg/m3
370.33 K, 4212.1 kPa	146.689 kg/m3 and 146.681 kg/m3
370.33 K, 4212.2 kPa	146.684 kg/m3 [middle of 5 runs]
370.33 K, 4281.2 kPa	196.669 kg/m3
370.33 K, 4281.3 kPa	197.033 kg/m3 and 196.772 kg/m3
370.33 K, 4284.6 kPa	220.89 kg/m3
370.33 K, 4284.7 kPa	220.777 kg/m3 and 220.874 kg/m3 and 220.88 kg/m3
370.33 K, 4284.8 kPa	221.028 kg/m3 and 221.044 kg/m3 and 221.077 kg/m3
370.33 K, 4284.9 kPa	221.146 kg/m3
370.33 K, 4288.5 kPa	243.759 kg/m3 and 243.744 kg/m3 and 243.764 kg/m3
370.33 K, 4288.6 kPa	243.866 kg/m3 [middle of 5 runs]
370.35 K, 4214.3 kPa	147.029 kg/m3 [middle of 5 runs]
370.35 K, 4274.3 kPa	177.77 kg/m3 and 177.777 kg/m3
370.35 K, 4274.4 kPa	177.843 kg/m3 and 177.765 kg/m3 and 177.808 kg/m3
370.35 K, 4285.7 kPa	209.496 kg/m3 [middle of 4 runs]
370.35 K, 4285.8 kPa	209.659 kg/m3
370.35 K, 4287.8 kPa	228.296 kg/m3
370.35 K, 4287.9 kPa	227.176 kg/m3 and 227.342 kg/m3
370.35 K, 4288 kPa	227.25 kg/m3
370.35 K, 4305.9 kPa	265.204 kg/m3
370.35 K, 4306 kPa	265.214 kg/m3 and 265.193 kg/m3
370.35 K, 4306.1 kPa	265.222 kg/m3
370.36 K, 4288 kPa	227.268 kg/m3
370.36 K, 4306.1 kPa	265.199 kg/m3
370.82 K, 4238.2 kPa	146.893 kg/m3
